Experimental data from US11090292B2, “Compositions and methods of use of an inappetance-controlling compound” (Aratana Therapeutics, Inc., priority 2012, dated 2021).

Columns and labels:
[1] = tested on: IGF-1; test: Example 12: serum IGF-1; type: in vivo, cats; settings: Day 0
Protocol: Similar to some of the other pharmacokinetic analyses conducted in dogs and cats, an additional pharmacokinetic study was conducted in cats to assess capromorelin formulations that allow sufficient drug to circulate to produce appetite stimulation and to define the capromorelin pharmacokinetic profile in cats. Briefly, twelve cats were randomized into Group 1 (six cats) and Group 2 (six cats). Group 1 received an intravenous formulation that included 0.75 mg/kg of capromorelin dissolved in sterile water and Group 2 received a previously tested formulation via oral gavage. Food consumption was determined daily for all cats. Specifically, animals were offered feed at approximately 11:00 AM, with the removal of feed at approximately 3:00 PM. Upon removal of feed, the amount consumed was calculated. […] Initially, the cats were given a seven day acclimation period to adjust to the experimental conditions and feed provided. After the acclimation period, on Day 0, all animals in Group 1 received an intravenous injection of the composition containing a dose of 0.75 mg/kg of capromorelin. On Day 0, the animals in Group 2 received an oral administration of the formulation via gavage at a dose of 3 mg/kg of capromorelin. […]

[2] = tested on: IGF-1; test: Example 4: serum IGF-1 concentration; type: in vivo, Beagle dogs
Protocol: (§1) A controlled, seven-day study was performed to assess the impact of different capromorelin-dosing regimens on the production of IGF-1, GH, and cortisol. The different capromorelin-dosing regimens were also assessed for the impact on food intake and changes in body mass.
(§2) […] were divided into one of three treatment groups, with one negative control group and two active treatment groups. Each of the three treatment groups included three males and three females. The first group received a placebo formulation (i.e., deionized water) twice per day, via oral gavage. The second group received a once-daily dose of the capromorelin composition at a concentration of 3 mg/kg, via oral gavage. The third group received a twice-daily dose of the capromorelin composition at a concentration of 3 mg/kg, via oral gavage.
(§3) During the ten day study period, on an at least once-daily basis, each of the dogs was monitored for clinical observations, mortality, moribundity, body mass, acceptability/palatability, and food consumption. Serum samples were taken to measure capromorelin concentration, GH concentration, IGF-1 concentration, and cortisol concentration. Serum samples were taken on days 1, 2, 4, and 7 at −15 minutes (pre-dose), immediately prior to dosing (0 minutes) and 30, 45, 60, 90, 120, 240, 360, and/or 480 minutes post dosing. Additional serum samples were taken at 8 AM on Day 10 of the study to assess long-term impact of the active treatments.

[3] = tested on: IGF-1; test: Example 13: serum IGF-1; type: in vivo, cats with compromised kidney function; settings: 8 hours post administration; Group 1 IV Day 0, Group 2 SC Days 0 and 13
Protocol: The following study was undertaken to assess multiple points. First, the following experiments were conducted to determine if a formulation of capromorelin, when administered either intravenously or subcutaneously, can stimulate appetite in cats with compromised kidney function. Second, the following experiments were conducted to assess the pharmacokinetic profile of capromorelin in the serum of cats with compromised kidney function. Finally, the following experiments were conducted to determine if capromorelin accumulates in the serum after 14 days of treatment that is subcutaneously administered.
Sixteen cats with compromised kidney function were acclimatized for the following study. Animals assigned to Group 1 (n=6) received an intravenous administration of a capromorelin formulation (i.e., capromorelin in sterile water) at a dose of 0.75 mg/kg on Day 0 of the experiment. Animals assigned to Group 2 (n=6) received a subcutaneous administration of a capromorelin formulation (2.1% w/v capromorelin, 1% w/v benzyl alcohol, and citrate buffer) daily for 14 days at a dose of 2 mg/kg. Animals assigned to Group 3 (n=4) served as untreated controls. […] Diet consumption was also monitored on study days −7 until day 13 for the animals in Groups 2 and 3 only.

[4] = tested on: cortisol; test: Example 4: serum cortisol concentration; type: in vivo, Beagle dogs; settings: approximately 0.5 h post treatment, days 1, 4 and 7
Protocol: as §1, §2
as §3, with “Additional serum samples were taken at 8 AM on Day 10 of the study to assess long-term impact of the active treatments.” left out

[5] = Example 9 four-day cat dosing regimen study: food consumption and body weight; type: in vivo, cats; settings: for increase in body weight relative to baseline measurements: four days
Protocol: A four-day study was performed to further assess the pharmacokinetics of formulation 8 from Example 3 (i.e., the most “well-accepted” formulation) in cats. Moreover, the administration of formulation 8 was also analyzed to determine if administration of this formulation could induce sustained production of IGF-1 and relatively depressed, mitigated, or lower levels of cortisol. The different capromorelin-dosing regimens were also assessed for the impact on food intake and changes in body mass.
Twenty-four adult cats were divided into one of four treatment groups, with all four groups as active treatment groups. Each of the active treatment groups included 6 cats. The first group received a sterile injection of a capromorelin composition containing a 0.75 mg/kg concentration of capromorelin once per day during the four-day experiment. The second group received a once-daily sterile injection of a capromorelin composition at a concentration of 2 mg/kg. The third group received a once-daily dose of a capromorelin composition at a concentration of 2 mg/kg, via oral gavage. The fourth group received a once-daily dose of a capromorelin composition containing capromorelin at a concentration of 4 mg/kg, via oral gavage.
During the seven day study period, on an at least once-daily basis, each of the cats was monitored for clinical observations, mortality, moribundity, body mass, acceptability/palatability, and food consumption. Serum samples were taken to measure capromorelin concentration, IGF-1 concentration, and cortisol concentration. Serum samples were taken on days 1 and 4 immediately prior to dosing (0 minutes) and 30, 60, 90, 120, 240, 360, and/or 480 minutes post dosing. Additional serum samples were taken at 8 AM on Day 7 of the study to assess long-term impact of the active treatments.

For CN1N=C2CCN(C(=O)[C@@H](COCc3ccccc3)NC(=O)C(C)(C)N)C[C@@]2(Cc2ccccc2)C1=O.O=C(O)C(O)C(O)C(=O)O [capromorelin], the “IGF-1 levels in the serum, Group 1 (IV 0.75 mg/kg) compared to Group 2 (oral 3 mg/kg)” value [1] was “greater increased in IGF-1 levels”, the “serum IGF-1 levels versus deionized water three days after terminating treatment” value ([2]; Day 10) was “not significantly different” and the “increase in serum IGF-1 concentration at eight hours post administration relative to time 0” value ([2]; once-daily 3 mg/kg, day 1) was “approximately 83.9%”. The “increase in serum IGF-1 concentration at eight hours post administration relative to time 0” value ([2]; once-daily 3 mg/kg, day 4) was “approximately 39.5%”, the “increase in serum IGF-1 concentration at eight hours post administration relative to time 0” value ([2]; once-daily 3 mg/kg, day 7) was roughly 36.8% and the “increase in serum IGF-1 concentration at eight hours post administration relative to time 0” value ([2]; twice-daily 3 mg/kg, day 1) was “approximately 50.6%”. For the same compound, the “increase in serum IGF-1 concentration at eight hours post administration relative to time 0” value ([2]; twice-daily 3 mg/kg, day 4) was “approximately 15.4%”, the “increase in serum IGF-1 concentration at eight hours post administration relative to time 0” value ([2]; twice-daily 3 mg/kg, day 7) was roughly 13.3% and the “serum concentration of IGF-1 as a result of treatment” value [3] was “increased in serum concentration of IGF-1”. For the same compound, the “cortisol concentrations in the serum relative to deionized water” value [4] was “increased”, the “increase in body weight relative to baseline measurements” value ([5]; 0.75 mg/kg sterile injection once daily) was 1.33% and the “increase in body weight relative to baseline measurements” value ([5]; 2 mg/kg oral once daily) was 0.70%. The “increase in body weight relative to baseline measurements” value ([5]; 2 mg/kg sterile injection once daily) was 2.37%, the “increase in body weight relative to baseline measurements” value ([5]; 4 mg/kg oral once daily) was 1.47% and the “food consumed relative to prior days of the experiment” value ([5]; sterile injectable formulations (0.75, 2 mg/kg) or 4 mg/kg oral gavage, once daily) was “consumed more food on day 4”.
